Test results reported in ChEMBL document CHEMBL1201862, “PubChem BioAssay data set” (2004).
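All cell lines were grown in 96-well plates and treated with compound for 48 hours. Here, GI50 denotes the concentration required for 50% inhibition of growth.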 The source made the active and inactive calls. Cut-off read from the data, not from the text of the source: active = GI50 up to about 1.1 µM and inactive = higher.

Assays:
Assay in all cases: DTP human tumour cell line panel, 48 h
MOLT-4 = test system: MOLT-4
A549 = test system: A549
RPMI-8226 = test system: RPMI-8226
786-0 = test system: 786-0
SN12C = test system: SN12C
HT-29 = test system: HT-29
HCT-15 = test system: HCT-15
SF-268 = test system: SF-268
HCC 2998 = test system: HCC 2998
TK-10 = test system: TK-10
HOP-62 = test system: HOP-62
SNB-75 = test system: SNB-75
ACHN = test system: ACHN
UACC-257 = test system: UACC-257
LOX IMVI = test system: LOX IMVI
OVCAR-4 = test system: OVCAR-4
M14 = test system: M14

Measured: GI50

CC1OC(OC2C(OC(=O)[C@]34CCC(C)(C)CC3C3=CCC5[C@@]6(C)C[C@H](O)[C@H](OC7OC(CO)C(O)C(O)C7N)[C@@](C)(C(=O)O)C6CC[C@@]5(C)C3(C)CC4)OCC(O)C2O)C(O)C(O)C1OC1OCC(O)C(O)C1O (stereo not given in full)
inactive: MOLT-4 > 100 µM | A549 > 100 µM | RPMI-8226 > 100 µM | 786-0 > 100 µM | SN12C > 100 µM | HT-29 > 100 µM | SF-268 > 100 µM | HCC 2998 > 100 µM | TK-10 > 100 µM | HOP-62 > 100 µM | SNB-75 > 100 µM | ACHN > 100 µM | UACC-257 > 100 µM | LOX IMVI > 100 µM
> 100 µM: HCT-15

CN(C)C(=O)Nc1c([N+](=O)[O-])cc(C(F)(F)F)cc1[N+](=O)[O-]
inactive: MOLT-4 78.5 µM | A549 45 µM | RPMI-8226 41.1 µM | OVCAR-4 27.7 µM | 786-0 > 100 µM | SN12C 45.7 µM | HT-29 35 µM | SF-268 > 100 µM | TK-10 > 100 µM | HOP-62 > 100 µM | M14 44.6 µM | SNB-75 74 µM | ACHN 83.4 µM | UACC-257 27.8 µM | LOX IMVI 28.8 µM
37.1 µM: HCT-15

CC/C(CC(=O)CCC(=O)Nc1c(C)cccc1C)=N\NC(=O)NN
inactive: MOLT-4 > 100 µM | A549 > 100 µM | OVCAR-4 > 100 µM | 786-0 > 100 µM | SN12C > 100 µM | HT-29 > 100 µM | SF-268 > 100 µM | HCC 2998 > 100 µM | TK-10 > 100 µM | M14 > 100 µM | ACHN > 100 µM | UACC-257 > 100 µM
> 100 µM: HCT-15

Nc1nc2ncn(CC(O)COC(=O)c3ccccc3)c2c(=O)[nH]1 (stereo not given)
inactive: A549 > 100 µM | RPMI-8226 > 100 µM | OVCAR-4 > 100 µM | 786-0 > 100 µM | SN12C > 100 µM | HT-29 > 100 µM | SF-268 > 100 µM | TK-10 > 100 µM | HOP-62 > 100 µM | M14 > 100 µM | SNB-75 > 100 µM | ACHN > 100 µM | UACC-257 > 100 µM | LOX IMVI > 100 µM
> 100 µM: HCT-15

Cc1cccc(C2SCc3nc4ccccc4n32)c1 (stereo not given)
18.6 µM: HCT-15
inactive: MOLT-4 25.9 µM | A549 37 µM | RPMI-8226 13.9 µM | OVCAR-4 28.2 µM | 786-0 25.1 µM | SN12C 19.5 µM | HT-29 27.9 µM | SF-268 36.7 µM | TK-10 21.9 µM | HOP-62 23.6 µM | M14 26.7 µM | SNB-75 2 µM | ACHN 24.3 µM | LOX IMVI 28.6 µM

O=NN(CCCl)C(=O)NCc1ccc[n+]([O-])c1
inactive: MOLT-4 60.8 µM | A549 93.8 µM | RPMI-8226 > 100 µM | OVCAR-4 > 100 µM | 786-0 35.7 µM | SN12C > 100 µM | HT-29 > 100 µM | SF-268 37.2 µM | HCC 2998 > 100 µM | TK-10 > 100 µM | HOP-62 54 µM | M14 > 100 µM | ACHN > 100 µM | UACC-257 > 100 µM | LOX IMVI 70.6 µM
> 100 µM: HCT-15

CC1=CCC2(C#N)CCC1C2=O (stereo not given)
inactive: MOLT-4 > 100 µM | A549 > 100 µM | RPMI-8226 > 100 µM | OVCAR-4 > 100 µM | 786-0 > 100 µM | SN12C > 100 µM | HT-29 > 100 µM | SF-268 > 100 µM | TK-10 > 100 µM | HOP-62 > 100 µM | M14 > 100 µM | ACHN > 100 µM | UACC-257 > 100 µM | LOX IMVI > 100 µM
> 100 µM: HCT-15
